This note sets out measurements from patent US20220169628A1 (University of Florida Research Foundation, Incorporated, priority 2019, published 2022).

Molecules are shown by their SMILES. Read-outs that look alike come from different tables or passages of the source.

Holding throughout (assay type): cell-based
Series [1] has as its system human platelets. Description: Human platelet viability, MTS assay. As to conditions: for IC50: Platelet, MTS assay (Table 2, FIG. 2). The protocol: FIG. 2. depicts dose response curves of ABT-263 and Compound 53 in MOLT-4 T-ALL cells & human platelets determined by MTS assay.
(§1) Cancer cells from different tissue origins including acute lymphoblastic leukemia (MOLT4 and RS4; 11), small cell lung cancer (NCI-H146 or simply H146), and multiple myeloma (EJM and H929) were incubated with increasing concentrations of Examples 1-21 or ABT-263 for 72 h. Cell viability was measured by tetrazolium-based MTS assay. 5×10^4 to 1×10^5 suspension cells or 3×10^3 to 5×10^3 adherent cells were seeded and treated in 96-well plates for 72 h. The EC50 values of individual agents were calculated with GraphPad Prism.
(In general: Tetrazolium dyes change colour on reduction, which living cells bring about.)

Series [2] relates to MOLT-4 cells. Kind of series: Cell viability assay, MTS, 48 h, MOLT-4. To be noted: for IC50: Homo sapiens, MOLT-4, 48 h. How it is done: (§2) Acute lymphoblastic leukemia cells (MOLT-4 and RS4; 11) or small cell lung cancer (NCI-H146 or simply H146) were incubated with increasing concentrations of Bcl-xL degraders for 48 h. Cell viability was measured by tetrazolium-based MTS assay.

Series [3] concerns MOLT-4 cells. Description: Cell viability assay, MTS, 72 h, MOLT-4. As to conditions: for IC50: Homo sapiens. How it is done: as §1
The test system of series [4] is human platelets. Kind of series: Human platelet viability, 48 h. To be noted: for IC50: Platelet.
The next series deals with RS4;11 cells. Description: Cell viability assay, MTS, 48 h, RS4;11. As to conditions: for IC50: Homo sapiens, RS4-11, 48 h. How it is done:
as §2

A further series deals with NCI-H146 cells. Description: Cell viability assay, MTS, 48 h, NCI-H146. As to conditions: for IC50: Homo sapiens. The protocol:
as §2

Series [5] deals with T1, Bcl-xL (Homo sapiens, UniProt Q07817). Kind of series: Protein degradation assay in human platelets (western blot). Also noted: endogenous in cells; host or cells: human platelets. To be noted: 16 h. The protocol: MOLT4 cells and human platelets were incubated with increasing concentrations of test compounds for 16 h. The cells were harvested and lysed in RIPA lysis buffer supplemented with protease and phosphatase inhibitor cocktails. An equal amount of protein (20 μg/lane) was resolved on a pre-cast 4-20% SDS-PAGE gel. Proteins were subsequently transferred to NOVEX PVDF membranes by electrophoresis. The membranes were blocked in blocking buffer (5% non-fat dry milk in TBS-T), and incubated with primary antibodies (at optimized concentrations) overnight at 4° C. After three washings in TBS-T, the membranes were incubated with an appropriate HRP-conjugated secondary antibody for 1 h at room temperature. After extensive washing for three times, the proteins of interest were detected with ECL western blotting detection reagents and recorded with autoradiography (Pierce Biotech, Rockford, Ill., USA). […] The relative band intensity was measured using ImageJ software and normalized to b-actin. The DC50 (concentration with 50% degradation) was calculated using GraphPad Prism.
T1 sequence (Q07817 whole entry): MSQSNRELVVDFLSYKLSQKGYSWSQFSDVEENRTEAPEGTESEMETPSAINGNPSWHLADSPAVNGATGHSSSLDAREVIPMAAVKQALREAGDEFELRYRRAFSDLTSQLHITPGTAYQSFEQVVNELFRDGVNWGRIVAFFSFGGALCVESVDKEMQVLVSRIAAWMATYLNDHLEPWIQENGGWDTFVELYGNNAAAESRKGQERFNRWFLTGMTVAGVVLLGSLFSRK
MOLT-4 cells and human platelets were incubated with increasing concentrations of test compounds for 16 h. […] After extensive washing for three times, the proteins of interest were detected with ECL western blotting detection reagents and recorded with autoradiography (Pierce Biotech, Rockford, Ill., USA). […]
Background: In western blotting, separated proteins are transferred to a membrane and probed.

Series [6] deals with T1, Bcl-xL. Kind of series: Protein degradation assay in MOLT-4 cells (western blot). To be noted: 16 h, read-out: DC50 (concentration with 50% degradation) of Bcl-xL. Also noted: endogenous in cells; host or cells: MOLT-4 cells. The protocol:
MOLT4 cells and human platelets were incubated with increasing concentrations of test compounds for 16 h. The cells were harvested and lysed in RIPA lysis buffer supplemented with protease and phosphatase inhibitor cocktails. An equal amount of protein (20 μg/lane) was resolved on a pre-cast 4-20% SDS-PAGE gel. Proteins were subsequently transferred to NOVEX PVDF membranes by electrophoresis. The membranes were blocked in blocking buffer (5% non-fat dry milk in TBS-T), and incubated with primary antibodies (at optimized concentrations) overnight at 4° C. After three washings in TBS-T, the membranes were incubated with an appropriate HRP-conjugated secondary antibody for 1 h at room temperature. After extensive washing for three times, the proteins of interest were detected with ECL western blotting detection reagents and recorded with autoradiography (Pierce Biotech, Rockford, Ill., USA). The primary antibodies for Bcl-xL (Cat #2762), Bcl-2 (Cat #2872), Mcl-1 (Cat #5453) and β-actin (Cat #4970) were purchased from Cell Signaling technology. The relative band intensity was measured using ImageJ software and normalized to b-actin. The DC50 (concentration with 50% degradation) was calculated using GraphPad Prism.
MOLT-4 cells and human platelets were incubated with increasing concentrations of test compounds for 16 h. The cells were harvested and lysed in RIPA lysis buffer supplemented with protease and phosphatase inhibitor cocktails. An equal amount of protein (20 μg/lane) was resolved on a pre-cast 4-20% SDS-PAGE gel. Proteins were subsequently transferred to NOVEX PVDF membranes by electrophoresis. […] After extensive washing for three times, the proteins of interest were detected with ECL western blotting detection reagents and recorded with autoradiography (Pierce Biotech, Rockford, Ill., USA). […] The relative band intensity was measured using ImageJ software and normalized to β-actin. The DC50 was calculated using GraphPad Prism.

Another series deals with caspase-3 and PARP. Kind of series: Downstream apoptotic mechanism, western blot of caspase-3 and PARP in MOLT-4 cells. As to conditions: after 16 h treatment. The protocol:
[…] At the end of incubation, cells were harvested for western blot analysis of cleaved and full length caspase-3 and poly (ADP) ribose polymerase (PARP). The antibodies for cleaved caspase-3 (Cat #9661) and PARP (Cat #9532) were purchased from Cell Signaling Technology.

The subject of another series is RS4 cells. Description: Cell viability assay, MTS, 72 h, RS4;11. To be noted: Homo sapiens. How it is done: as §1
The mark [7] stands for this setting: 48 h, read-out: MOLT-4 IC50 (nM, 48 h).
Where [8] appears, read: MOLT-4 T-ALL cells, MTS assay (Table 2, FIG. 2).
[9] abbreviates: 48 h, read-out: RS4, 11 IC50 (nM, 48 h).

In general, IC50 refers to the concentration at which inhibition is half-maximal. With `CC1(C)CCC(c2ccc(Cl)cc2)=C(CN2CCN(c3ccc(C(=O)NS(=O)(=O)c4ccc(N[C@H](CCN5CCOCC5)CSc5ccccc5)c(S(=O)(=O)C(F)(F)F)c4)cc3)CC2)C1` [ABT-263, reference compound], the IC50 stood at 190 nM in the series on human platelets [1]; 201 nM with MOLT-4 cells [2] (setting [7]); 202 nM in the series on MOLT-4 cells [3] (setting [8]); 0.5 µM in the series with human platelets [4]; 35 nM in the series on RS4;11 cells (setting [9]); 36 nM with NCI-H146 cells.

On to `Cc1ncsc1-c1ccc([C@H](C)NC(=O)[C@@H]2C[C@@H](O)CN2C(=O)[C@@H](NC(=O)CCCCCCCCC(=O)NCC2(C)CCC(c3ccc(Cl)cc3)=C(CN3CCN(c4ccc(C(=O)NS(=O)(=O)c5ccc(N[C@H](CCN6CCOCC6)CSc6ccccc6)c(S(=O)(=O)C(F)(F)F)c5)cc4)CC3)C2)C(C)(C)C)cc1` (stereo partly drawn) [degrader #5, N1-((4′-chloro-4-methyl-6-((4-(4-(((4-(((R)-4-morpholino-1-(phenylthio)butan-2-yl)amino)-3-((trifluoromethyl)sulfonyl)phenyl)sulfonyl)carbamoyl)phenyl)piperazin-1-yl)methyl)-2,3,4,5-tetrahydro-[1,1′-biphenyl]-4-yl)methyl)-N10-((S)-1-((2S,4R)-4-hydroxy-2-(((S)-1-(4-(4-methylthiazol-5-yl)phenyl)ethyl)carbamoyl)pyrrolidin-1-yl)-3,3-dimethyl-1-oxobutan-2-yl)decanediamide], for which the IC50 in the series with MOLT-4 cells [2] (setting [7]) was 31 nM; in the series with human platelets [4], 3.5 µM; in the series on RS4;11 cells (setting [9]), 22.2 nM; with NCI-H146 cells it was 88 nM. Further, the “Bcl-xL levels in human platelets” value on Bcl-xL [5] is reported as “did not affect Bcl-xL levels”. The DC50 on Bcl-xL [6] is 21.5 nM. Besides, in the series on caspase-3 and PARP, the “cleavage of caspase-3 and PARP” value was “induced cleavage of caspase-3 and PARP”.

For `Cc1ncsc1-c1ccc([C@H](C)NC(=O)[C@@H]2C[C@@H](O)CN2C(=O)[C@@H](NC(=O)CCCCCCCCC(=O)NCC2(C)CCC(c3ccc(Cl)cc3)=C(CN3CCN(c4ccc(C(=O)NS(=O)(=O)c5ccc(N[C@H](CCN6CCOCC6)CSc6ccccc6)c(S(=O)(=O)C(F)(F)F)c5)cc4)CC3)C2)C(C)(C)C)cc1` (stereo partly drawn) [Compound 53, N^1-((4′-chloro-4-methyl-6-((4-(4-(((4-(((R)-4-morpholino-1-(phenylthio)butan-2-yl)amino)-3-((trifluoromethyl)sulfonyl)phenyl)sulfonyl)carbamoyl)phenyl)piperazin-1-yl)methyl)-2,3,4,5-tetrahydro-[1,1′-biphenyl]-4-yl)methyl)-N^10—((S)-1-((2S,4R)-4-hydroxy-2-(((S)-1-(4-(4-methylthiazol-5-yl)phenyl)ethyl)carbamoyl)pyrrolidin-1-yl)-3,3-dimethyl-1-oxobutan-2-yl)decanediamide], the “effects on human platelets compared with ABT-263” value in the series on human platelets [1] (FIG. 2) is recorded as “substantially less effects on human platelets than ABT-263”. The half-inhibitory concentration (IC50) in the series with human platelets [1] amounted to 1550 nM; in the series with MOLT-4 cells [3] (setting [8]), 36 nM; with MOLT-4 cells [3] (MOLT-4 cells, 72 h, MTS), 36 nM; with RS4 cells it was 17.4 nM. Further, in the series on MOLT-4 cells [3] (MOLT-4 cells, FIG. 2), the “potency in MOLT-4 cells compared with ABT-263” value is given as “more potent than ABT-263”.

For `Cc1ncsc1-c1ccc([C@H](C)NC(=O)[C@@H]2C[C@@H](O)CN2C(=O)[C@@H](NC(=O)CCCCCCCCC(=O)NC[C@]2(C)CCC(c3ccc(Cl)cc3)=C(CN3CCN(c4ccc(C(=O)NS(=O)(=O)c5ccc(N[C@H](CCN6CCOCC6)CSc6ccccc6)c(S(=O)(=O)C(F)(F)F)c5)cc4)CC3)C2)C(C)(C)C)cc1` [degrader #42, N1-(((R)-4′-chloro-4-methyl-6-((4-(4-(((4-(((R)-4-morpholino-1-(phenylthio)butan-2-yl)amino)-3-((trifluoromethyl)sulfonyl)phenyl)sulfonyl)carbamoyl)phenyl)piperazin-1-yl)methyl)-2,3,4,5-tetrahydro-[1,1′-biphenyl]-4-yl)methyl)-N10-((S)-1-((2S,4R)-4-hydroxy-2-(((S)-1-(4-(4-methylthiazol-5-yl)phenyl)ethyl)carbamoyl)pyrrolidin-1-yl)-3,3-dimethyl-1-oxobutan-2-yl)decanediamide], in the series with MOLT-4 cells [2] (48 h, FIG. 7), the “potency in killing MOLT-4 cells compared with ABT-263” value is on record as “more potent”. The half-inhibitory concentration (IC50) is 15.2 nM in the series with MOLT-4 cells [2] (setting [7]); < 50 nM in the series with MOLT-4 cells [2] (48 hours, read-out: IC50 (48 hours) MOLT-4); 1.09 µM in the series on human platelets [4]; 9.9 nM with RS4;11 cells (setting [9]); < 50 nM in the series with RS4;11 cells (48 hours, read-out: IC50 (48 hours) RS4;11); 45 nM in the series with NCI-H146 cells. Also, in the series on human platelets [4] (FIG. 7), the “effects on human platelets compared with ABT-263” value is “substantially less effects on human platelets”. Further, the DC50 on Bcl-xL [6] turned out to be 11.5 nM. For the same compound, the “potency in killing RS4;11 cells compared with ABT-263” value in the series on RS4;11 cells (48 h, FIG. 7) is given as “more potent”. The “potency in killing NCI-H146 cells compared with ABT-263” value in the series on NCI-H146 cells (FIG. 7) is listed as “equally potent”.
